Measurements reported in patent US5552155A, “Fusogenic lipsomes and methods for making and using same” (The Liposome Company, Inc., priority 1994, dated 1996).

Legend:
[1] = 2H-NMR phase behavior of AL-1-d4 in MLVs; format: physicochemical; conditions: for phase behavior by 2H-NMR (in words): 10 mole % AL-1-d4 in EPC/Chol (55:45)
Procedure: Freeze-thawed MLVs of 10 mole % AL-1-d4 in EPC/Chol (55:45) were prepared as described above in 100 mM ammonium acetate at pH 4.0 and pH 7.5 in deuterium-depleted water. Sample concentrations were approximately 150 mM total lipid. Broad line quadrupole spectra were recorded on a Bruker MSL200 spectrometer at 30.7 MHz, using a spin-echo sequence with a 5.3 μs 90° pulse and a 200 ms repeat delay. Temperature was maintained at 20° C. with a liquid nitrogen flow system. […] FIDs were transformed using 100 Hz line-broadening.
Freeze-thawed MLVs containing 5 mole percent AL-1-d4 in EPC/Chol (55:45) were prepared in 20 mM HEPES, 20 mM ammonium acetate, 150 mM NaCl, pH 4.0 and pH 7.5, using deuterium-depleted water. Sample concentrations were approximately 200 mM total lipid. ^2 H-NMR broadline spectra were recorded at 46.175 MHz, on a home-built 300 MHz spectrometer using a 5 μs 90° pulse, 50 μs interpulse spacing, 30.5 μs ring-down delay, and a 300 ms repetition time. A quadrupole echo sequence with eight-step phase cycling was used to accumulate 200,000 scans. The resulting free induction decay (FID) was transformed with 100 Hz line-broadening. High resolution ^31 P spectra were recorded at 81 MHz on a Bruker MSL200 spectrometer, using a 2.8 μs pulse and 30 s repeat. Temperature was maintained at 23 degrees Celsius with a liquid nitrogen flow system. The FID was accumulated over 1000 scans, and transformed with 50 Hz line broadening.
The use of MLVs in this experiment avoids the rapid tumbling of LUVs on the NMR time scale. […] At pH 7.5, the bilayer signal is no longer present, and a strong isotropic peak appears in the middle of the spectrum.

[2] = TNS fluorescence pH titration: apparent pKa and % charged of aminolipids in liposomal membranes; format: physicochemical; conditions: for pKa in the lipid bilayer (text / figure legend): TNS fluorescence titration, 10 mole % AL-1 in EPC/Chol (55:45), no pH gradient (nigericin); for Apparent pKa: in liposomes, from fit of TNS fluorescence titrations to Henderson-Hasselbach equation; for pKa's and relative charges at pH 7.5 (in words): compared with AL-1
Procedure: Preparations were diluted to 0.25 mM total lipid in 5 mM HEPES, 5 mM ammonium, 2 μM TNS at pHs ranging from 3.0 to 10.0 The pH across the vesicle membranes was rendered equal by adding nigericin to a final concentration of 0.01 μM. The TNS fluorescence at each pH value was determined under the conditions given above.
*The data were derived from TNS fluorescence titrations. Curves for each
aminolipid were fitted to the HendersonHasselbach equation by iteratively
varying pKa and maximum and minimum fluorescence.

[3] = Lipid-mixing fusion assay by RET fluorescent probe dilution, EPC/DOPE/Chol liposomes; conditions: for order of fusion traces, uppermost-lowermost / fusion of liposomes / fusion rate (in words): 5 mole % aminolipid, FIG. 9; for order of fusion traces, uppermost-lowermost: EPC/Chol/DOPE (35:20:45); for fusion of liposomes / fusion rate (in words): EPC/DOPE/Chol (35:20:45)
Procedure: (§1) Fusion was monitored by the decrease in resonance energy transfer (RET) resulting from fluorescent probe dilution, as described by Struck et al. (1981). […] The external buffer was 20 mM HEPES (150 mM NaCl, pH 7.5). […] Labeled and unlabeled liposomes were mixed in a 1:3 ratio, and diluted to 0.2 mM total lipid. External buffer was exchanged for 300 mM sucrose, 1 mM citrate, pH 4.0, on Sephadex G-25 columns before diluting preparations to 10 mM lipid. For fusion assays, 20 μl of fluorescently labeled liposomes, and 60 μl unlabeled liposomes, were added to 3.92 ml of 20 mM HEPES, 150 mM NaCl, pH 7.5. After 5 min. of incubation at room temperature, a 3 ml aliquot was added to a cuvette, and the fluorescence was monitored over 5 minutes. Excitation and emission wavelengths were 465 and 535 nm, respectively, and an emission 530 nm cutoff filter was used. To dissipate the gradient and induce fusion, ammonium acetate was added to a final concentration of 100 mM at 30 seconds. The percent change in fluorescence (% F/Fmax) was determined by assigning zero fluorescence (F0) to a trace with no ammonium acetate added and Fmax to a trace measured after adding 100 μl of 25 mM Triton X-100, so that:
(§2) % (F/Fmax)=100×((F-F0)/(Fmax -F0))
To study the effect of aminolipid structure on the fusion of EPC/Chol/DOPE liposomes (35:20:45) liposomes were prepared with 5 mole % of the indicated aminolipid (AL-1-AL-6), an internal pH 4.0, 300 mM sodium citrate buffer, and an external 20 mM HEPES buffer (150 mM NaCl, pH 7.5). Fusion assays were carried out as described above.
(§3) Membrane fusion was monitored by a loss in RET between the fluorescently labeled lipids NBD-PE and Rh-PE. When liposomes containing both of these labels fuse with unlabeled liposomes, the resulting dilution of the fluorescent probes gives increased fluorescence for NBD-PE.

[4] = Lipid asymmetry (transport of aminolipid to the inner monolayer) by TNS fluorescence; format: physicochemical; conditions: internal pH 4, external pH 7.5
Procedure: Aliquots of 90 μl were added to 2.9 ml of 20 mM HEPES, 150 mM NaCl, 5 μM TNS, pH 7.5, and fluorescence was monitored over 5 minutes.
However, at higher concentrations, the fluorescence levels off and begins to decrease.
The slow decreases in fluorescence observed in these curves is a result of photobleaching of TNS during the course of the experiments. […] The rapid movement of the AL-1 across the bilayer is advantageous for its use in controlling fusion.

[5] = Lipid-mixing fusion assay by RET fluorescent probe dilution, EPC/Chol (55:45) liposomes; conditions: for ΔF/ΔFmax (fusion): pH gradient dissipated by ammonium acetate
Procedure: as §1, §2
The labeled and unlabeled liposomes were mixed in a 1:3 ratio and diluted to 0.20 mM total lipid. The pH gradient was dissipated by the addition of ammonium acetate to a final concentration of 100 mM at 30 seconds.
as §3

[6] = Aggregation / stability of aminolipid-containing liposomes; format: physicochemical
[7] = Lipid-mixing fusion assay by RET fluorescent probe dilution, EPC/DOPE/Chol liposomes
[8] = Table 1, from TNS fluorescence titrations
[9] = 10 mole % AL-1 in EPC/Chol (55:45)

[2H]/C(CCCCCCCC)=C(\[2H])CCCCCCCC(=O)OCC(CN(C)C)OC(=O)CCCCCCC/C([2H])=C(/[2H])CCCCCCCC (racemic) [AL-1-d4, rac-1-N,N-dimethylamino-2,3-bis(9,10-dideuteriooleoyl)propane]
2H-NMR quadrupolar splitting of signal believed to arise from aminolipid in HII phase ([1]; 5 mole % AL-1-d4, EPC/DOPE/Chol, pH 7.5, FIG. 8A): about 12 kHz
phase behavior by 2H-NMR (in words) ([1]; pH 4.0): quadrupolar splittings for the chain-labeled positions of AL-1-d4, with the expected magnitude for lipid in the bilayer

CCCCCCCC/C=C\CCCCCCCC(=O)OCC(O)CN(C)C (racemic) [AL-2, ±-oleoyl-2-hydroxy-3-N,N-dimethylaminopropane]
pKa in the lipid bilayer (text / figure legend) [2]: about 7.57
Apparent pKa ([2]; Table 1): 7.57
% Charged at pH 7.5 [2, 8]: 54%
order of fusion traces, uppermost-lowermost [3]: AL-1, AL-5, AL-4, AL-3, AL-6, AL-2 and blank
fusion of liposomes / fusion rate (in words) [3]: little increase in liposome fusion in comparison with liposomes not containing aminolipid

CCCCCCCC/C=C\CCCCCCCC(=O)OCC(CN(C)C)OC(C)=O (racemic) [AL-3]
pKa in the lipid bilayer (text / figure legend) [2]: 6.79
% Charged at pH 7.5 [2, 8]: 16%
% Charged at pH 7.5 [2]: 16%
order of fusion traces, uppermost-lowermost [3]: AL-1, AL-5, AL-4, AL-3, AL-6, AL-2 and blank
fusion of liposomes / fusion rate (in words) [3]: substantially greater fusion rate

CCCCCCCC/C=C\CCCCCCCC(=O)OCC(CN(C)C)OC(=O)CCC (racemic) [AL-4]
Apparent pKa ([2]; Table 1): 6.66
% Charged at pH 7.5 [2, 8]: 13%
pKa's and relative charges at pH 7.5 (in words) [2]: approach those for AL-1
order of fusion traces, uppermost-lowermost [3]: AL-1, AL-5, AL-4, AL-3, AL-6, AL-2 and blank
fusion of liposomes / fusion rate (in words) [3]: further increases in the fusion rate, with rates approaching those achieved with AL-1--containing liposomes

CCCCCCCC/C=C\CCCCCCCC(=O)OCC(CN(C)C)OC(=O)CCCCCCCCC (racemic) [AL-5]
% Charged at pH 7.5 [2, 8]: 14%
pKa's and relative charges at pH 7.5 (in words) [2]: approach those for AL-1
order of fusion traces, uppermost-lowermost [3]: AL-1, AL-5, AL-4, AL-3, AL-6, AL-2 and blank
fusion of liposomes / fusion rate (in words) [3]: further increases in the fusion rate, with rates approaching those achieved with AL-1--containing liposomes

CCCCCCCCCC(=O)OCC(CN(C)C)OC(=O)CCCCCCCCC (racemic) [AL-6, ±-1,2-didecanoyl-1-N,N,-dimethyl-aminopropane]
% Charged at pH 7.5 [2, 8]: 17%
pKa's and relative charges at pH 7.5 (in words) [2]: approach those for AL-1
order of fusion traces, uppermost-lowermost [3]: AL-1, AL-5, AL-4, AL-3, AL-6, AL-2 and blank
fusion of liposomes / fusion rate (in words) [3]: only limited mixing

CCCCCCCC/C=C\CCCCCCCC(=O)OCC(CN(C)C)OC(=O)CCCCCCC/C=C\CCCCCCCC (centres unmarked) [AL-1, 1-N,N-dimethylamino dioleoyl propane]
time until TNS fluorescence equal to that of EPC/Chol liposomes (virtually all AL-1 moved to the inner monolayer) [4, 9]: four
transbilayer movement to the inner monolayer (in words) ([4]; pH gradient): virtually all of the AL-1 had moved to the inner monolayer
ΔF/ΔFmax (fusion) ([5]; 10 mole % AL-1, EPC/Chol (55:45)): ~3%
ΔF/ΔFmax (fusion) ([5]; 20 mole % AL-1, EPC/Chol (55:45)): ~3%
degree of fusion (in words) ([5]; AL-1 in EPC/Chol (55:45)): limited degree of fusion
ΔF/ΔFmax (fusion) ([3]; 5 mole % AL-1, EPC/DOPE/Chol (35:20:45), first 5 minutes): greater than 10%
order of fusion traces, uppermost-lowermost [3]: AL-1, AL-5, AL-4, AL-3, AL-6, AL-2 and blank
liposome stability (in words) ([6]; 5 mole % AL-1, EPC/DOPE/Chol (35:20:45), pH 4.0 and external pH 7.5): stable liposomes were prepared, and these remained stable when the external pH was increased to 7.5
liposome aggregation (in words) ([6]; 10 mole % AL-1, EPC/DOPE/Chol 35:20:45, low pH): some aggregation of liposomes was observed at low pH
liposome aggregation (in words) ([6]; 10 mole % AL-1, EPC/DOPE/Chol, DOPE above 35:20:45): rapid aggregation
liposome aggregation (in words) [6, 9]: aggregated
liposome aggregation (in words) ([6]; AL-1 greater than about 20 mole % in EPC/Chol, following extrusion): rapid and complete liposome aggregation
phase behavior by 2H-NMR (in words) ([1]; pH 7.5): exists in separate fluid domains at pH 7.5
fusion rate with increasing DOPE (in words) ([7]; 10 mole % AL-1, DOPE replacing EPC up to 35:20:45 EPC/DOPE/Chol, FIG. 6): Increasing fusion rates were evident with increasing DOPE concentrations
ΔF/ΔFmax (fusion) ([7]; 10 mole % AL-1, EPC/DOPE/Chol 35:20:45, after 5 minutes): over 5%
ΔF/ΔFmax (fusion) ([7]; 10 mole % AL-1, EPC/DOPE/Chol (30:25:45), over 5 minutes after gradient dissipation): ~10%
